The numbers were not newly measured in patent US20190150439A1, “SOLUBLE LIQUID FORMULATIONS OF QUINCLORAC AMMONIUM SALTS” (BASF SE, priority 2012, published 2019), which cites them from elsewhere.

For this data set the following is noted: pH 7 at 20° C.

For the compound `O=C(O)c1c(Cl)ccc2cc(Cl)cnc12` [Quinclorac, 3,7-dichloro-8-quinolinecarboxylic acid], the solubility in water is given as 0.065 mg/kg.
